Assay [1] concerns the target ATR kinase (Homo sapiens (Human), UniProt Q13535). In words: In vitro ATR kinase inhibition assay (Mobility Shift Assay, Caliper EZ Reader). Format: biochemical. Particulars: ATP concentration of Km; 4 h at 28° C. Here is the method:
Experimental method: The inhibitory activity of the compounds on ATR kinase in vitro was determined by Mobility Shift Assay at an ATP concentration of Km using Caliper EZ Reader as a mobility shift assaying technology based on microfluidic chip technology.
Experimental procedure: (1) The compounds to be tested were dissolved in DMSO and serially diluted 4× for a total of 10 concentrations; (2) 0.06 μL of the compounds at different concentrations were pipetted into a 384-well plate using an Echo pipetting system; (3) a 2× kinase solution with a concentration of 10 nM ATR kinase was prepared from the ATR kinase and the 1× kinase buffer; and a 2× substrate solution with a concentration of 6 μM 5-FAM-AK-17 and 4 μM ATP was prepared from 5-FAM-AK-17, ATP and the 1× kinase buffer; (4) 10 μL of the 2× kinase solution was added into the 384-well plate and incubated for 10 min at room temperature; 10 μL of the 2× substrate solution was then added and incubated for 4 h at 28° C.; (5) 30 μL of the termination buffer was added to terminate the reaction, and then the 384-well plate was put into the Caliper EZ Reader to read the conversion rate data.

The subject of assay [2] is human colon cancer LoVo cells. Briefly: Cell proliferation inhibition assay (CellTiter-Glo). Format: cell-based. The conditions noted are these: LoVo cells, 96 hours incubation; for Emax: read-out: Max Inhibition. From the text: Experimental method: A CellTiter-Glo cell viability assay kit was used to test the inhibitory effect of the compounds on the in vitro proliferation of human colon cancer LoVo cells.
Experimental materials: LoVo cells (ATCC, Cat. No. CCL-29); F-12K medium (Invitrogen, Cat. No. 21127-022); fetal bovine serum (Biological Industries, Cat. No. 04-002-1A); GlutaMAX (Gibco, Cat. No. 35050-061); 0.25% trypsin-EDTA (Invitrogen, Cat. No. 25200-072); CellTiter-Glo kit (Promega, Cat. No. G7558).
Experimental procedure: (1) F-12K medium, fetal bovine serum and GlutaMAX were formulated into a complete medium for culturing LoVo cells; (2) well-grown LoVo cells were taken, digested with trypsin and transferred to a centrifuge tube, and centrifuged; the supernatant was discarded, and cells were resuspended by adding a fresh medium and counted by a Vi-CELL XR cell counter; the density of the cell suspension was adjusted to 25,000 to 30,000 cells/mL, and the cell suspension was added at 100 μL/well in a 96-well cell culture plate, while a blank control group was set up with no cells added, and the cell culture plate was incubated in a carbon dioxide incubator overnight; (3) a DMSO solution of the compound to be tested was dispensed into the above 96-well cell culture plate using an HP D300 ultra-micro sampler, with 0.5 μL of the solution per well and 10 concentrations for each compound (3× dilution), while a DMSO control group with no compound added was set up, and the plate was continued to be incubated in a carbon dioxide incubator for 96 hours; (4) the cell culture plate was taken out and equilibrated to room temperature, with 100 μL of a CellTiter-Glo reagent added to each well, and then the plate was kept away from light, shaken for 10 minutes and then incubated for 10 minutes; (5) the cell culture plate was put into EnSpire for plate reading, and the luminescence value RLU was recorded.
Data processing: (1) The inhibition rate was calculated from the luminescence values: “RLUDMSO” is the luminescence value of the DMSO control group without compound, “RLUblank” is the luminescence value of the blank control group without cells, and “RLUcompound” is the luminescence value of the compound test group, and the inhibition rate=[1−(RLUcompound−RLUblank)/(RLUDMSO−RLUblank)]×100%; (2) with curve fitting using the Excel add-on XLFit, the IC50 value was calculated.

Sequence of ATR kinase (Q13535 whole entry): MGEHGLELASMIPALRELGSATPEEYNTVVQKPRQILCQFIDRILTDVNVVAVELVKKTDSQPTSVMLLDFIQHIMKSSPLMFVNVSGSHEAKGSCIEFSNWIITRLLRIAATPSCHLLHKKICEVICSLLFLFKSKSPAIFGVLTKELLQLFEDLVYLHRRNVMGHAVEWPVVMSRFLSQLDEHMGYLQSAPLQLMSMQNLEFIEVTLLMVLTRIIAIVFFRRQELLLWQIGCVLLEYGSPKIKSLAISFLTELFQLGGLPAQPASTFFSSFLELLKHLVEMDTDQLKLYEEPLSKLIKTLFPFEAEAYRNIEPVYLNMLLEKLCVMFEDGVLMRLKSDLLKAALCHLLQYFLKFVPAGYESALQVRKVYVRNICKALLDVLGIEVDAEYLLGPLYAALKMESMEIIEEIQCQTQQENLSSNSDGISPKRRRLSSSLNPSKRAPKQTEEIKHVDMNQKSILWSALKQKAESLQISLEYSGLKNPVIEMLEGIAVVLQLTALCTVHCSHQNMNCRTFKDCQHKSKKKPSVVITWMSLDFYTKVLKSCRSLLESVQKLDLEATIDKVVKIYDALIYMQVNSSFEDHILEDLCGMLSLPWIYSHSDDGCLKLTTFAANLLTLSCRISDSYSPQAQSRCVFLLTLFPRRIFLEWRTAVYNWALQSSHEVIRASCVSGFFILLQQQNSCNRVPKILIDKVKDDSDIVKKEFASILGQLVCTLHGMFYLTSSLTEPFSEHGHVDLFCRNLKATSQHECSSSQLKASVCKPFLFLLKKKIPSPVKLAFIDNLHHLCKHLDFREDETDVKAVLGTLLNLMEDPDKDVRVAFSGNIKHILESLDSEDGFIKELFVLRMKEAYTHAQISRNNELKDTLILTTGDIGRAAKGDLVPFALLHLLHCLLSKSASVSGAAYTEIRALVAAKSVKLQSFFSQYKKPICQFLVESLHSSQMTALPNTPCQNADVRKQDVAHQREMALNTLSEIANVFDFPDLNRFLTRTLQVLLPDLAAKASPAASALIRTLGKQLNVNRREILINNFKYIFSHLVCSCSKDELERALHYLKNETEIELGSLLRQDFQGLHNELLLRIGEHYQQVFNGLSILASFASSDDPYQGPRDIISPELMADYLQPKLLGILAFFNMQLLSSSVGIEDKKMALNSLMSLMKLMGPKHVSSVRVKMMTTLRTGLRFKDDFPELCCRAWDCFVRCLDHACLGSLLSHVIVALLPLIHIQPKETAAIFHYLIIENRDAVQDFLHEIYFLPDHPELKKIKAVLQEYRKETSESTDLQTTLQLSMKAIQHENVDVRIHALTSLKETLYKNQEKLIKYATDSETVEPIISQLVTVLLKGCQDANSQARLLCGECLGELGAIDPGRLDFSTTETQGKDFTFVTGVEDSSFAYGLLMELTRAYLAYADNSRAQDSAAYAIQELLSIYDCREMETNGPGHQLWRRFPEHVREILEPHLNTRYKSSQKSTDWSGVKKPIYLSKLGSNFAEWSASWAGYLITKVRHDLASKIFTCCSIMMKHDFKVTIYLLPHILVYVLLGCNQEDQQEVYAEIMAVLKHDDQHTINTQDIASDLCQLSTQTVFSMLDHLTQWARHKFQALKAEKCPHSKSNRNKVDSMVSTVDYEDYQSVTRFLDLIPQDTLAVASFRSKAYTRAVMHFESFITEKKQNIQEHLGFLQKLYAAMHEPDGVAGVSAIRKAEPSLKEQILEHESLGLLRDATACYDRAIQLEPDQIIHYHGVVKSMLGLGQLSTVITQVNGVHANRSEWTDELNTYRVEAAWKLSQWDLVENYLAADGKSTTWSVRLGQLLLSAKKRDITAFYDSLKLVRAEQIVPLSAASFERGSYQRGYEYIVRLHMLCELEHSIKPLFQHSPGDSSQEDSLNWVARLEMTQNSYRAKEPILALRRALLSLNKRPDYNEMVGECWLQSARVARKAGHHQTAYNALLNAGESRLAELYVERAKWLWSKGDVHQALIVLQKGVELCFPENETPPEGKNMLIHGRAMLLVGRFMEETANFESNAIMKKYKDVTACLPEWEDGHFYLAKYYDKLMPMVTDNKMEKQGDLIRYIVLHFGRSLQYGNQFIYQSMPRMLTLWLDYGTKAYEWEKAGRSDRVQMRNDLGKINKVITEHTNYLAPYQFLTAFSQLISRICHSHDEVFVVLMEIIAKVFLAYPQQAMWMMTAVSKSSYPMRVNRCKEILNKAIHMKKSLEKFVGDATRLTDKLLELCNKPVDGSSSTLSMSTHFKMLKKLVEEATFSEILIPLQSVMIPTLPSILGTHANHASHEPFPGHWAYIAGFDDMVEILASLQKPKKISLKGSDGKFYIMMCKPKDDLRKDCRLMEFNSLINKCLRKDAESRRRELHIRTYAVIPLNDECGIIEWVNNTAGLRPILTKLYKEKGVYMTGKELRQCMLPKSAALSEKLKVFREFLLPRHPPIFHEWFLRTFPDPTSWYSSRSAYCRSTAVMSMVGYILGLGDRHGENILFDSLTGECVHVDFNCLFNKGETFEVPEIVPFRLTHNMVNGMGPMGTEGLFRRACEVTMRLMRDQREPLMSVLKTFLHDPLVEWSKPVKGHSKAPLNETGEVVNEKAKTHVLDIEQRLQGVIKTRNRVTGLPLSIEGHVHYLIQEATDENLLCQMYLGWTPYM
Sequence of ATR kinase (Q8WXE1 whole entry partner): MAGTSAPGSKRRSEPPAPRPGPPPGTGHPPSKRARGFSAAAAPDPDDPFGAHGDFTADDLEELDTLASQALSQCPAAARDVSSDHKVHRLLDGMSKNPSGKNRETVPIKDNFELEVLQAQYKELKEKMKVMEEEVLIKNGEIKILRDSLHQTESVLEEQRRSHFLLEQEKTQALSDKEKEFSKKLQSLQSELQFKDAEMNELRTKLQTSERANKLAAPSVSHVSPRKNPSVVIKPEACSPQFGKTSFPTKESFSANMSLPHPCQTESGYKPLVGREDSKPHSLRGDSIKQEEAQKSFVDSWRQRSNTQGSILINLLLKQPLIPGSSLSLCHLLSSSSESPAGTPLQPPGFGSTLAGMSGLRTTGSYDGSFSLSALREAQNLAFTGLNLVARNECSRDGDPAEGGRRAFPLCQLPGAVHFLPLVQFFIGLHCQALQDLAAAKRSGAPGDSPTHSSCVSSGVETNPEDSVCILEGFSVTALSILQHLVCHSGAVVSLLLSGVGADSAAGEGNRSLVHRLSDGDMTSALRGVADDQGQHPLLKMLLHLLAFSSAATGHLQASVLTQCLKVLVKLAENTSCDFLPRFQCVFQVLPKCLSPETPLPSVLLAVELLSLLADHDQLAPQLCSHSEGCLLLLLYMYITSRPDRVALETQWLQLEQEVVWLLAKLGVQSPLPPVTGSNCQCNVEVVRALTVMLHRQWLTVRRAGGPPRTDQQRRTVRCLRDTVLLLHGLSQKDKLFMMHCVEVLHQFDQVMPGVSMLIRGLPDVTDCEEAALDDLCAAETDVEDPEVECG

As usually defined, the IC50 is the concentration that inhibits the measured activity by half. For `C[C@@H]1COCCN1c1nc(-c2cc(F)cc3[nH]ccc23)nc2c1ccn2S(C)(=O)=O` [Compound 20, (R)-4-(2-(6-fluoro-1H-indol-4-yl)-7-(methylsulfonyl)-7H-pyrrolo[2,3-d]pyrimidin-4-yl)-3-methylmorpholine], the half-maximal inhibitory concentration (IC50) in assay [1] was found to be 1.6 nM. Moreover, the Emax in assay [2] (Homo sapiens) came to 91%.
Turning to `C[C@@H]1COCCN1c1nc(-c2ccnc3[nH]ccc23)nc2c1ccn2S(=O)(=O)CCO` [Compound 21, (R)-2-((4-(3-methylmorpholinyl)-2-(1H-pyrrolo[2,3-b]pyridin-4-yl)-7H-pyrrolo[2,3-d]pyrimidin-7-yl)sulfonyl)ethanol], the IC50 in assay [1] worked out at 4.4 nM. In assay [2], the concentration for half-maximal inhibition (IC50) worked out at 710 nM and the “Max Inhibition” value came to 92%.
For `C[C@@H]1COCCN1c1nc(-c2ccnc3[nH]ccc23)nc2c1ncn2S(C)(=O)=O` [Compound 22, (R)-3-methyl-4-(9-(methylsulfonyl)-2-(1H-pyrrolo[2,3-b]pyridin-4-yl)-9H-purin-6-yl)morpholine], the half-inhibitory concentration (IC50) in assay [1] was determined as 10 nM. Moreover, the Emax in assay [2] (Homo sapiens) was 93%.
On to `C[C@@H]1COCCN1c1nc(-c2ccnc3[nH]ccc23)nc2c1cnn2S(C)(=O)=O` [Compound 23, (R)-3-methyl-4-(1-(methylsulfonyl)-6-(1H-pyrrolo[2,3-b]pyridin-4-yl)-1H-pyrazolo[3,4-d]pyrimidin-4-yl)morpholine], for which the IC50 in assay [1] is 15 nM. Moreover, in assay [2] (Homo sapiens), the midpoint of inhibition, the IC50, lay at 740 nM and the Emax is 92%.
`C[C@@H]1COCCN1c1cc(-c2ccnc3[nH]ccc23)nc2c1ncn2S(C)(=O)=O` [Compound 24, (R)-3-methyl-4-(3-(methylsulfonyl)-5-(1H-pyrrolo[2,3-b]pyridin-4-yl)-3H-imidazo[4,5-b]pyridin-7-yl)morpholine]: the IC50 in assay [1] turned out to be 15 nM. Also, the Emax in assay [2] (Homo sapiens) was 92%.
For `C[C@@H]1COCCN1c1nc(-c2cncc3[nH]ccc23)cc2c1ncn2S(C)(=O)=O` [Compound 25, (R)-3-methyl-4-(1-(methylsulfonyl)-6-(1H-pyrrolo[2,3-c]pyridin-4-yl)-1H-imidazo[4,5-c]pyridin-4-yl)morpholine], in that order: 9.4 nM and 89%.
For `C[C@@H]1COCCN1c1nc(-c2ccnc3[nH]ccc23)cc2c1ccn2S(C)(=O)=O` [Compound 26, (R)-3-methyl-4-(1-(methylsulfonyl)-6-(1H-pyrrolo[2,3-b]pyridin-4-yl)-1H-pyrrolo[3,2-c]pyridin-4-yl)morpholine], in that order: 8.6 nM and 92%.
For the molecule `C[C@@H]1COCCN1c1nc(-c2nc3ccccc3[nH]2)nc2c1ccn2S(C)(=O)=O` [Compound 27, (R)-4-(2-(1H-benzo[d]imidazol-2-yl)-7-(methylsulfonyl)-7H-pyrrolo[2,3-d]pyrimidin-4-yl)-3-methylmorpholine], the concentration for half-maximal inhibition (IC50) in assay [1] amounted to 1.6 nM. Besides, the Emax in assay [2] (Homo sapiens) is 94%.
As to `CNc1nc2ccccc2n1-c1nc(N2CCOC[C@H]2C)c2ccn(S(C)(=O)=O)c2n1` [Compound 28, (R)-N-methyl-1-(4-(3-methylmorpholinyl)-7-(methylsulfonyl)-7H-pyrrolo[2,3-d]pyrimidin-2-yl)-1H-benzo[d]imidazol-2-amine], the half-inhibitory concentration (IC50) in assay [1] turned out to be 4.1 nM. In addition, in assay [2], the half-inhibitory concentration (IC50) came out at 100 nM and the “Max Inhibition” value is listed as 92%.
As to `Cc1cc(-c2nc(N3CCOC[C@H]3C)c3ccn(S(C)(=O)=O)c3n2)c2cc[nH]c2c1` [Compound 29, (R)-3-methyl-4-(2-(6-methyl-1H-indol-4-yl)-7-(methylsulfonyl)-7H-pyrrolo[2,3-d]pyrimidin-4-yl)morpholine], the concentration for half-maximal inhibition (IC50) in assay [1] turned out to be 2.3 nM. Moreover, the Emax in assay [2] (Homo sapiens) amounted to 94%.
In the case of `C[C@@H]1COCCN1c1nc(-c2cc(C#N)cc3[nH]ccc23)nc2c1ccn2S(C)(=O)=O` [Compound 30, (R)-4-(4-(3-methylmorpholinyl)-7-(methylsulfonyl)-7H-pyrrolo[2,3-d]pyrimidin-2-yl)-1H-indol-6-carbonitrile], the half-maximal inhibitory concentration (IC50) in assay [1] was found to be 9.4 nM; in assay [2], 1060 nM. Besides, in assay [2], the “Max Inhibition” value came out at 93%.
Consider `C[C@@H]1COCCN1c1nc(-c2cc(Cl)cc3[nH]ccc23)nc2c1ccn2S(C)(=O)=O` [Compound 31, (R)-4-(2-(6-chloro-1H-indol-4-yl)-7-(methylsulfonyl)-7H-pyrrolo[2,3-d]pyrimidin-4-yl)-3-methylmorpholine], for which the half-inhibitory concentration (IC50) in assay [1] is 4.4 nM. Moreover, the Emax in assay [2] (Homo sapiens) was 93%.
For `COc1cc(-c2nc(N3CCOC[C@H]3C)c3ccn(S(C)(=O)=O)c3n2)c2cc[nH]c2c1` [Compound 32, (R)-4-(2-(6-methoxy-1H-indol-4-yl)-7-(methylsulfonyl)-7H-pyrrolo[2,3-d]pyrimidin-4-yl)-3-methylmorpholine], in that order: 5.3 nM and 95%.
For `CCS(=O)(=O)n1ccc2c(N3CCOC[C@H]3C)nc(-c3ccnc4[nH]ccc34)nc21` [Compound 33, (R)-4-(7-(ethylsulfonyl)-2-(1H-pyrrolo[2,3-b]pyridin-4-yl)-7H-pyrrolo[2,3-d]pyrimidin-4-yl)-3-methylmorpholine], in that order: 5 nM and 92%.
On to `C[C@@H]1COCCN1c1nc(-c2ccnc3[nH]ccc23)nc2c1ccn2S(=O)(=O)N(C)C` [Compound 34, (R)-N,N-dimethyl-4-(3-methylmorpholinyl)-2-(1H-pyrrolo[2,3-b]pyridin-4-yl)-7H-pyrrolo[2,3-d]pyrimidine-7-sulfamide], for which the half-inhibitory concentration (IC50) in assay [1] was 7.1 nM. Moreover, in assay [2], the midpoint of inhibition, the IC50, lay at 290 nM and the “Max Inhibition” value turned out to be 93%.

The record behind these values is patent US20250051362A1, “SUBSTITUTED FUSED HETEROCYCLIC COMPOUND, AND PREPARATION METHOD THEREFOR AND USE THEREOF” (Shanghai Annova Biotechnology Co., Ltd., priority 2021, published 2025).
